pEC50: −log10 of the molar value. Like-named read-outs stand apart in the source and are kept apart here. *1 amine or outer side, *2 acyl side, *3 side chain or, on linkers, in order; H or OH if unused. Where a SMILES comes first, the peptide text is derived from it. Side-chain parts run from the residue outwards. [ ]: non-standard residue; d: D form. The star is where a group is joined. C20 diacid = O=C(O)CCCCCCCCCCCCCCCCCCC(=O)*; C18 diacid = O=C(O)CCCCCCCCCCCCCCCCC(=O)*; γGlu = O=C(O)[C@H](CCC(=O)[*:2])N[*:1]; AEEA = NCCOCCOCC(=O)O; Aib = CC(C)(N)C(=O)O
Tests used:
[1] = molecular target: T1, human GIP R (Homo sapiens, UniProt P48546); assay: Human GIP receptor (GIP R) activity assay, cAMP induction (AlphaScreen) in HEK293 cells; format: cell-based; settings: read-out: hGIP-R cAMP EC50 average value
T1 construct: expressed in transfected cells
T1 sequence (P48546 22-466): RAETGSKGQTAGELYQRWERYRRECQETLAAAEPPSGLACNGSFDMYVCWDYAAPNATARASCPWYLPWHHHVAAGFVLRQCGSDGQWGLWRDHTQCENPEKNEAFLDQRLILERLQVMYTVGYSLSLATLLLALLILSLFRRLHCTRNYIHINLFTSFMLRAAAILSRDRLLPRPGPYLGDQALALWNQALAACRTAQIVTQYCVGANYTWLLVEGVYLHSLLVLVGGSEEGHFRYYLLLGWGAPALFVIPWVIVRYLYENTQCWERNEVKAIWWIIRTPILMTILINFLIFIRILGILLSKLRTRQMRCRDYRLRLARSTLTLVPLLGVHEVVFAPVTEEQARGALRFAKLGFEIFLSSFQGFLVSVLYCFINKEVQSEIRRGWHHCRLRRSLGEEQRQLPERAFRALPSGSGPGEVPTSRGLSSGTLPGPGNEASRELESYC
Procedure, shortened: (§1)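 Stable HEK293 clones expressing human GIP R or GLP-1 R, seeded 1 day before; cells washed in Tyrode's buffer (10 mM HEPES, pH 7.4), stimulated, then lysed. cAMP measured by AlphaScreen bead competition (1 h, room temperature, dark). EC50 = concentration giving half-maximal cAMP elevation, from curves of absolute cAMP (nM) vs log concentration.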

[2] = molecular target: T2, human GLP-1 R (Homo sapiens, UniProt P43220); assay: Human GLP-1 receptor (GLP-1 R) activity assay, cAMP induction (AlphaScreen) in HEK293 cells; format: cell-based
T2 construct: expressed in transfected cells
Procedure, shortened: as §1

[3] = Pharmacokinetics of selected compounds in mice; format: in vivo, C57BL/6J mice; settings: mouse, plasma; for bioavailability: subcutaneous, AUCinf (s.c.)/AUCinf (i.v.)x100, values marked * capped to 100%
Description: Pharmacokinetics of Selected Compounds in Mice
C57BL/6J mice (males with a body weight of approximately 25 g) were given either a single subcutaneous (s.c.) bolus or a single intravenous (i.v.) bolus of each peptide to be tested.
Following s.c. administration of the selected compounds (50, 100 or 200 nmol/kg), blood samples were drawn at 8 (eight) timepoints up to 72 hours post-dose. Following i.v. administration of the selected compounds (50, 100 or 200 nmol/kg), blood samples were drawn at 8 (eight) timepoints up to 48 hours post-dose. Blood samples were drawn by sublingual bleeding. The dosing vehicle was a phosphate buffer containing mannitol (pH 7.5).
At each sampling time point, samples from two mice were drawn, i.e. 16 mice were included for each compound and each administration route. The mice were euthanized immediately after blood sampling by cervical dislocation. Plasma samples were analyzed after solid phase extraction (SPE) or protein precipitation followed by liquid chromatography mass spectrometry (LC-MS/MS). Mean plasma concentrations were used for calculation of the pharmacokinetic parameters using the non-compartmental approach in Phoenix WinNonlin 6.3. Plasma terminal elimination half-life (T½) was determined as […] where λz is the magnitude of the slope of the log linear regression of the log concentration versus time profile during the terminal phase. Bioavailability was determined as AUCinf (s.c.)/AUCinf (i.v.)×100, where AUCinf is the area under the plasma concentration−time curve extrapolated to infinity (AUCinf=AUClast+Clast/λz, where Clast is the last observed plasma concentration). Tmax is the post-dose time where the maximal plasma concentration was observed.

[4] = Table 2, HEK293 cells expressing human GIP R
[5] = Table 2a, secondary assay study
[6] = Table 3, most comprehensive data
[7] = Table 2, HEK293 cells expressing human GLP-1 R, read-out: hGLP1-R cAMP EC50 average value
[8] = Table 2a, secondary assay study, read-out: hGLP1-R cAMP EC50 average value
[9] = Table 3, most comprehensive data, read-out: hGLP-1-R cAMP EC50 average value
[10] = male, C57BL/6J, iv, single i.v. bolus, read-out: T½ terminal elimination half-life, i.v. (converted)
[11] = male, C57BL/6J, sc, single s.c. bolus
[12] = male, C57BL/6J, sc, single s.c. bolus, read-out: T½ terminal elimination half-life, s.c. (converted)

T2 sequence (P43220 24-463): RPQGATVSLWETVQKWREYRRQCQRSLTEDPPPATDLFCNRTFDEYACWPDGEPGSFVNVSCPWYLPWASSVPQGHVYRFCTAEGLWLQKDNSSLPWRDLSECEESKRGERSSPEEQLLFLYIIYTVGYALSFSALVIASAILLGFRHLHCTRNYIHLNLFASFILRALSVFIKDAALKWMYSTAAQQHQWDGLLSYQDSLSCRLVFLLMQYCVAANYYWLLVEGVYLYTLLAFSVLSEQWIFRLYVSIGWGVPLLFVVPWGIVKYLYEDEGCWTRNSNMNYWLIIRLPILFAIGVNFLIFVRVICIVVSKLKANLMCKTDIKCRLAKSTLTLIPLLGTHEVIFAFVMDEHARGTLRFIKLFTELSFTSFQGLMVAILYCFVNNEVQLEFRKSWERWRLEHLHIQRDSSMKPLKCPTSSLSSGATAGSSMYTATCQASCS

Structure (SMILES) | pEC50 [1, 4] | pEC50 [1, 5] | pEC50 [1, 6] | pEC50 [2, 7] | pEC50 [2, 8] | pEC50 [2, 9] | half-life [3, 10] [min] | bioavailability ([3]; male, C57BL/6J) [%] | Tmax [3, 11] [h] | half-life [3, 12] [min] | half-life ([3]; iv, single i.v. bolus, read-out: T½ terminal elimination half-life, i.v. (converted)) [min] | bioavailability [3] [%] | Tmax ([3]; sc, single s.c. bolus) [h] | half-life ([3]; sc, single s.c. bolus, read-out: T½ terminal elimination half-life, s.c. (converted)) [min]
CC[C@H](C)[C@H](NC(=O)[C@H](CO)NC(=O)[C@H](Cc1ccc(O)cc1)NC(=O)[C@H](CC(=O)O)NC(=O)[C@H](CO)NC(=O)[C@@H](NC(=O)[C@H](Cc1ccccc1)NC(=O)[C@@H](NC(=O)CNC(=O)[C@H](CCC(=O)O)NC(=O)C(C)(C)NC(=O)[C@@H](N)Cc1ccc(O)cc1)[C@@H](C)O)[C@@H](C)O)C(=O)N[C@@H](Cc1ccc(O)cc1)C(=O)N[C@@H](CC(C)C)C(=O)N[C@@H](CC(=O)O)C(=O)N[C@@H](CCCCN)C(=O)N[C@@H](CCCCNC(=O)COCCOCCNC(=O)COCCOCCNC(=O)CC[C@H](NC(=O)CCCCCCCCCCCCCCCCC(=O)O)C(=O)O)C(=O)N[C@@H](C)C(=O)N[C@@H](CCC(N)=O)C(=O)N[C@@H](CCCNC(=N)N)C(=O)N[C@@H](C)C(=O)N[C@@H](Cc1ccccc1)C(=O)N[C@H](C(=O)N[C@@H](CCC(=O)O)C(=O)N[C@@H](Cc1c[nH]c2ccccc12)C(=O)N[C@@H](CC(C)C)C(=O)N[C@@H](CC(C)C)C(=O)N[C@@H](C)C(=O)N[C@@H](CCC(N)=O)C(=O)NCC(=O)N1CCC[C@H]1C(=O)N[C@@H](CO)C(=O)N[C@@H](CO)C(=O)NCC(=O)N[C@@H](C)C(=O)N1CCC[C@H]1C(=O)N1CCC[C@H]1C(=O)N1CCC[C@H]1C(=O)N[C@@H](CO)C(N)=O)C(C)C [Compound 1] (H-Y[Aib]EGTFTSDYSIYLDKK([AEEA-AEEA-γGlu-C18 diacid])AQRAFVEWLLAQGPSSGAPPPS-NH2) | 11.26 | 11.22 | 11.22 | 10.92 | 10.82 | 10.82 | 648 | 90 | 6 | 546 | – | – | – | –
CC[C@H](C)[C@H](NC(=O)[C@H](CO)NC(=O)[C@H](Cc1ccc(O)cc1)NC(=O)[C@H](CC(=O)O)NC(=O)[C@H](CO)NC(=O)[C@@H](NC(=O)[C@H](Cc1ccccc1)NC(=O)[C@@H](NC(=O)CNC(=O)[C@H](CCC(=O)O)NC(=O)C(C)(C)NC(=O)[C@@H](N)Cc1ccc(O)cc1)[C@@H](C)O)[C@@H](C)O)C(=O)N[C@@H](Cc1ccc(O)cc1)C(=O)N[C@@H](CC(C)C)C(=O)N[C@@H](CC(=O)O)C(=O)N[C@@H](CCCCN)C(=O)N[C@@H](CCCCNC(=O)COCCOCCNC(=O)COCCOCCNC(=O)CC[C@H](NC(=O)CCCCCCCCCCCCCCCCCCC(=O)O)C(=O)O)C(=O)N[C@@H](C)C(=O)N[C@@H](CCC(N)=O)C(=O)N[C@@H](CCCNC(=N)N)C(=O)N[C@@H](C)C(=O)N[C@@H](Cc1ccccc1)C(=O)N[C@H](C(=O)N[C@@H](CCC(=O)O)C(=O)N[C@@H](Cc1c[nH]c2ccccc12)C(=O)N[C@@H](CC(C)C)C(=O)N[C@@H](CC(C)C)C(=O)N[C@@H](C)C(=O)N[C@@H](CCC(N)=O)C(=O)NCC(=O)N1CCC[C@H]1C(=O)N[C@@H](CO)C(=O)N[C@@H](CO)C(=O)NCC(=O)N[C@@H](C)C(=O)N1CCC[C@H]1C(=O)N1CCC[C@H]1C(=O)N1CCC[C@H]1C(=O)N[C@@H](CO)C(N)=O)C(C)C [Compound 2] (H-Y[Aib]EGTFTSDYSIYLDKK([AEEA-AEEA-γGlu-C20 diacid])AQRAFVEWLLAQGPSSGAPPPS-NH2) | 11.31 | 11.10 | 11.10 | 11.08 | 10.96 | 10.96 | 996 | 83 | 6 | 990 | – | – | – | –
CC[C@H](C)[C@H](NC(=O)[C@H](CO)NC(=O)[C@H](Cc1ccc(O)cc1)NC(=O)[C@H](CC(=O)O)NC(=O)[C@H](CO)NC(=O)[C@@H](NC(=O)[C@H](Cc1ccccc1)NC(=O)[C@@H](NC(=O)CNC(=O)[C@H](CCC(=O)O)NC(=O)C(C)(C)NC(=O)[C@@H](N)Cc1ccc(O)cc1)[C@@H](C)O)[C@@H](C)O)C(=O)N[C@@H](Cc1ccc(O)cc1)C(=O)N[C@@H](CC(C)C)C(=O)N[C@@H](CC(=O)O)C(=O)N[C@@H](CCCCN)C(=O)N[C@@H](CCCCNC(=O)CC[C@H](NC(=O)CCCCCCCCCCCCCCCCC(=O)O)C(=O)O)C(=O)N[C@@H](C)C(=O)N[C@@H](CCC(N)=O)C(=O)N[C@@H](CCCNC(=N)N)C(=O)N[C@@H](C)C(=O)N[C@@H](Cc1ccccc1)C(=O)N[C@H](C(=O)N[C@@H](CCC(=O)O)C(=O)N[C@@H](Cc1c[nH]c2ccccc12)C(=O)N[C@@H](CC(C)C)C(=O)N[C@@H](CC(C)C)C(=O)N[C@@H](C)C(=O)N[C@@H](CCC(N)=O)C(=O)NCC(=O)N1CCC[C@H]1C(=O)N[C@@H](CO)C(=O)N[C@@H](CO)C(=O)NCC(=O)N[C@@H](C)C(=O)N1CCC[C@H]1C(=O)N1CCC[C@H]1C(=O)N1CCC[C@H]1C(=O)N[C@@H](CO)C(N)=O)C(C)C [Compound 3] (H-Y[Aib]EGTFTSDYSIYLDKK([γGlu-C18 diacid])AQRAFVEWLLAQGPSSGAPPPS-NH2) | 11.07 | 11.05 | 11.05 | 10.96 | 10.96 | – | 546 | 89 | 8 | – | – | – | – | –
CC[C@H](C)[C@H](NC(=O)[C@H](CO)NC(=O)[C@H](Cc1ccc(O)cc1)NC(=O)[C@H](CC(=O)O)NC(=O)[C@H](CO)NC(=O)[C@@H](NC(=O)[C@H](Cc1ccccc1)NC(=O)[C@@H](NC(=O)CNC(=O)[C@H](CCC(=O)O)NC(=O)C(C)(C)NC(=O)[C@@H](N)Cc1ccc(O)cc1)[C@@H](C)O)[C@@H](C)O)C(=O)N[C@@H](Cc1ccc(O)cc1)C(=O)N[C@@H](CC(C)C)C(=O)N[C@@H](CC(=O)O)C(=O)N[C@@H](CCCCN)C(=O)N[C@@H](CCCCNC(=O)CNC(=O)CNC(=O)[C@H](CO)NC(=O)CNC(=O)[C@H](CO)NC(=O)CNC(=O)CC[C@H](NC(=O)CCCCCCCCCCCCCCCCC(=O)O)C(=O)O)C(=O)N[C@@H](C)C(=O)N[C@@H](CCC(N)=O)C(=O)N[C@@H](CCCNC(=N)N)C(=O)N[C@@H](C)C(=O)N[C@@H](Cc1ccccc1)C(=O)N[C@H](C(=O)N[C@@H](CCC(=O)O)C(=O)N[C@@H](Cc1c[nH]c2ccccc12)C(=O)N[C@@H](CC(C)C)C(=O)N[C@@H](CC(C)C)C(=O)N[C@@H](C)C(=O)N[C@@H](CCC(N)=O)C(=O)NCC(=O)N1CCC[C@H]1C(=O)N[C@@H](CO)C(=O)N[C@@H](CO)C(=O)NCC(=O)N[C@@H](C)C(=O)N1CCC[C@H]1C(=O)N1CCC[C@H]1C(=O)N1CCC[C@H]1C(=O)N[C@@H](CO)C(N)=O)C(C)C [Compound 4] | 11.06 | 11.05 | 11.05 | 11.00 | – | – | – | – | – | – | 522 | 100 | 6 | 648
